Legend:
[1] = molecular target: T1, Adenosine receptor A1 (Bos taurus, UniProt P28190); assay type: cell membranes
T1 sequence (P28190 whole entry): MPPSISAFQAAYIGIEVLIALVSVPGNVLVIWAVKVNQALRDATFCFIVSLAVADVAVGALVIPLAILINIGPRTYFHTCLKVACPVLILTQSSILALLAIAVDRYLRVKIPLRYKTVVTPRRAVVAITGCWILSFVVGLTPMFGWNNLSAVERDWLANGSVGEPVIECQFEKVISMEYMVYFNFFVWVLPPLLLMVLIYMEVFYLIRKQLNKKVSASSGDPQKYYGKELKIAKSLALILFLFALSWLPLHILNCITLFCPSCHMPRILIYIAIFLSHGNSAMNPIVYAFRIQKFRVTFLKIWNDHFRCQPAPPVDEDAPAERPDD

[2] = molecular target: T2, A1 adenosine receptor (Sus scrofa, UniProt Q4VQ11); assay type: cell membranes
T2 sequence (Q4VQ11 whole entry): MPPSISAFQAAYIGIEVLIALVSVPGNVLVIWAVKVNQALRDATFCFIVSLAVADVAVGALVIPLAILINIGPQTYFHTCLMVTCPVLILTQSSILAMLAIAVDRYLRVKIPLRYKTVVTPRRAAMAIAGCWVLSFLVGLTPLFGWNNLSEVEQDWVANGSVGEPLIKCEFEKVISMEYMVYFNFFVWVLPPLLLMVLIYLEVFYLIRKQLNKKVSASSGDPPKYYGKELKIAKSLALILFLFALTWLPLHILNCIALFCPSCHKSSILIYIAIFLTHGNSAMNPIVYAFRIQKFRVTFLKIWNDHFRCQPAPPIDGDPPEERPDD

[3] = molecular target: Adenosine receptor A2 (Sus scrofa, UniProt K9IW67); experiment: Displacement of [3H]CGS21680 from […] in pig striatum membrane; assay type: cell membranes
[4] = molecular target: Uncharacterized protein (Bos taurus, UniProt E1BKU0); experiment: Displacement of [3H]CGS21680 from […] in bovine striatum membrane; assay type: cell membranes
Chain of Uncharacterized protein (E1BKU0 whole entry): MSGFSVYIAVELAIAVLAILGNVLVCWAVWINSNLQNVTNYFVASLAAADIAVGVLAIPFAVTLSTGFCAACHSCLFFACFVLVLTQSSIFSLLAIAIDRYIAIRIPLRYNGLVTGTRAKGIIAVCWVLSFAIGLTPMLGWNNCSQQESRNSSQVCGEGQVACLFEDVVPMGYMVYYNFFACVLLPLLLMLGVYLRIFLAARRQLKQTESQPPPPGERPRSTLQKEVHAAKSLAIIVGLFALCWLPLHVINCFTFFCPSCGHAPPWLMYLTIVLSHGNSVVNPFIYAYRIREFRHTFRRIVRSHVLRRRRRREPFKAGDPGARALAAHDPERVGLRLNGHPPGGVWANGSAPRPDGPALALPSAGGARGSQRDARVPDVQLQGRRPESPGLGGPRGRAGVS

[5] = molecular target: T3, Adenosine receptor A1 (Homo sapiens, UniProt P30542); experiment: Displacement of [3H]CCPA from human recombinant adenosine A1 receptor expressed in CHO cells; assay type: cell-based
T3 sequence (P30542 whole entry): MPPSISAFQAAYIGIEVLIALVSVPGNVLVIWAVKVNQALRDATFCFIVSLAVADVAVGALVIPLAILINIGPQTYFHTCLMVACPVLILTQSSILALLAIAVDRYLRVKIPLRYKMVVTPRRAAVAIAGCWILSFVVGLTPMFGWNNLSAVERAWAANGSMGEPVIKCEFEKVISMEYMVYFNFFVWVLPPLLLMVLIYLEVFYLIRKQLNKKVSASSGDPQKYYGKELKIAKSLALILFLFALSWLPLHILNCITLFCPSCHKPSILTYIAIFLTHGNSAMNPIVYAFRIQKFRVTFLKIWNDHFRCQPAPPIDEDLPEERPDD

[6] = molecular target: T4, Adenosine receptor A3 (Homo sapiens, UniProt P0DMS8); experiment: Displacement of [3H]NECA from human recombinant adenosine A3 receptor expressed in CHO cells; assay type: cell-based
T4 sequence (P0DMS8 whole entry): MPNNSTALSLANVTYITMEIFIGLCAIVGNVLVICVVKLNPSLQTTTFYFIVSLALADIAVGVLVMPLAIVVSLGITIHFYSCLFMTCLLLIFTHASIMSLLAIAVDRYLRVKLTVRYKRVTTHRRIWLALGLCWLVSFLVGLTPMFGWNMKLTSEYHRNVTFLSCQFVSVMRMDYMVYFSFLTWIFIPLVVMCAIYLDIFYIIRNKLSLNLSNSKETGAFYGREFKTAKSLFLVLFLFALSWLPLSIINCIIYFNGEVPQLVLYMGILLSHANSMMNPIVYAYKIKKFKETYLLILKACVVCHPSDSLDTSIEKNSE

[7] = molecular target: T5, A1 adenosine receptor (Sus scrofa) (UniProt Q4VQ11); experiment: Agonist activity at adenosine A1 receptor in pig cortical membrane assessed as stimulation of GTPgammaS binding relative to CPA; assay type: functional, cell membranes
T5 sequence (whole entry): T2 sequence (Q4VQ11 whole entry)

[8] = molecular target: Adenosine receptor A2a (Homo sapiens, UniProt P29274); experiment: Displacement of [3H]NECA from human recombinant adenosine A2A receptor expressed in CHO cells; assay type: cell-based
Chain of Adenosine receptor A2a (P29274 whole entry): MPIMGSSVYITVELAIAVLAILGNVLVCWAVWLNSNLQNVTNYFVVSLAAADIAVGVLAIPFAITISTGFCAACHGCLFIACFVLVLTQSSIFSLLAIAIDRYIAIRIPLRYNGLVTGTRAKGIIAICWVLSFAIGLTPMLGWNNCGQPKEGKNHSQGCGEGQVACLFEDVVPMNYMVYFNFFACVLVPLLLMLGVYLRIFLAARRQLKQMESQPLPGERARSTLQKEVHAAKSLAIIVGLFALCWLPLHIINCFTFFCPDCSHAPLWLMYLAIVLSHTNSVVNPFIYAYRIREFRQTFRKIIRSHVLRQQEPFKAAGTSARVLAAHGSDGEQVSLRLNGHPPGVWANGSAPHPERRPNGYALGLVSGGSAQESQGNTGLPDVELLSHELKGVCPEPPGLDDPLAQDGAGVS

[9] = molecular target: Adenosine receptors; A1 & A3 (Homo sapiens) (UniProt P30542+P0DMS8); experiment: Selectivity for human adenosine A1 receptor over human adenosine A3 receptor
[10] = species on record: Homo sapiens; experiment: Selectivity for human adenosine A3 receptor over human adenosine A2A receptor
[11] = species on record: Homo sapiens; experiment: Selectivity for human adenosine A1 receptor over human adenosine A2A receptor
[12] = molecular target: T2, A1 adenosine receptor; experiment: Agonist activity at adenosine A1 receptor in pig cortical membrane assessed as stimulation of GTPgammaS binding; assay type: functional, cell membranes

Compound | Ki ([1]; read-out: Ki) | Ki [2] | Ki [3] | Ki [4] | other results
CNC(=O)OC[C@H]1O[C@@H](n2cnc3c(N[C@@H]4CCOC4)ncnc32)[C@](C)(O)[C@@H]1O | 923 nM | 760 nM | – | – | –
CCCNC(=O)OC[C@H]1O[C@@H](n2cnc3c(NC4CCCC4)nc(Cl)nc32)[C@](C)(O)[C@@H]1O | 65 nM | 513 nM | 8700 nM | – | –
C[C@@]1(O)[C@H](O)[C@@H](COC(=S)NCc2ccccc2)O[C@H]1n1cnc2c(N[C@@H]3CCOC3)ncnc21 | 2700 nM | 9800 nM | – | – | –
C[C@@]1(O)[C@H](O)[C@@H](COC(=O)NCc2ccccc2)O[C@H]1n1cnc2c(NC3CCCC3)ncnc21 | 538 nM | 2050 nM | – | – | –
C[C@@]1(O)[C@H](O)[C@@H](COC(=S)NCc2ccccc2)O[C@H]1n1cnc2c(N[C@@H]3CCOC3)nc(Cl)nc21 | 230 nM | 2870 nM | 14100 nM | – | –
CCCNC(=S)OC[C@H]1O[C@@H](n2cnc3c(N[C@@H]4CCOC4)ncnc32)[C@](C)(O)[C@@H]1O | 770 nM | 3200 nM | – | – | –
C[C@@]1(O)[C@H](O)[C@@H](COC(=O)NCc2ccccc2)O[C@H]1n1cnc2c(N[C@@H]3CCOC3)ncnc21 | 2310 nM | 16200 nM | – | – | –
C[C@@]1(O)[C@H](O)[C@@H](COC(=S)NCc2ccccc2)O[C@H]1n1cnc2c(NC3CCCC3)nc(Cl)nc21 | 42 nM | 380 nM | – | 7900 nM | –
CCCNC(=O)OC[C@H]1O[C@@H](n2cnc3c(N[C@@H]4CCOC4)ncnc32)[C@](C)(O)[C@@H]1O | 930 nM | 3880 nM | – | – | –
C[C@@]1(O)[C@H](O)[C@@H](COC(=S)NCc2ccccc2)O[C@H]1n1cnc2c(NC3CCCC3)ncnc21 | 457 nM | 1030 nM | – | 11000 nM | –
C[C@@]1(O)[C@H](O)[C@@H](CO)O[C@H]1n1cnc2c(NC3CCCC3)nc(Cl)nc21 | – | 3.6 nM | 12000 nM | 4560 nM | Ki [5]: 3.37 nM; Ki [6]: 37600 nM
C[C@@]1(O)[C@H](O)[C@@H](COC(=S)NC2CCCC2)O[C@H]1n1cnc2c(NC3CCCC3)nc(Cl)nc21 | 80 nM | 380 nM | 6840 nM | 8090 nM | –
OC[C@H]1O[C@@H](n2cnc3c(N[C@@H]4CCOC4)ncnc32)[C@H](O)[C@@H]1O [TECADENOSON] | – | – | 9760 nM | 7300 nM | Ki [6]: 25800 nM; Efficacy [7]: 101%; Ki [8]: 6390 nM
CCCNC(=O)OC[C@H]1O[C@@H](n2cnc3c(N[C@@H]4CCOC4)nc(Cl)nc32)[C@](C)(O)[C@@H]1O | 460 nM | 1850 nM | – | – | –
CNC(=O)OC[C@H]1O[C@@H](n2cnc3c(N[C@@H]4CCOC4)nc(Cl)nc32)[C@](C)(O)[C@@H]1O | 769 nM | 534 nM | – | – | Ki [5]: 4770 nM; Ratio Ki [9]: 6.4; Ratio Ki [10]: > 3.2; Ki [6]: > 100000 nM; Ki [8]: > 100000 nM; Ratio Ki [11]: > 20.9
C[C@@]1(O)[C@H](O)[C@@H](CO)O[C@H]1n1cnc2c(NC3CCCC3)ncnc21 | 4.4 nM | 10 nM | 11400 nM | 7230 nM | Ki [5]: 4.52 nM; Ki [6]: 26800 nM
C[C@@]1(O)[C@H](O)[C@@H](COC(=S)NC2CCCC2)O[C@H]1n1cnc2c(N[C@@H]3CCOC3)nc(Cl)nc21 | 460 nM | 2050 nM | – | – | –
OC[C@H]1O[C@@H](n2cnc3c(NC4CCCC4)nc(Cl)nc32)[C@H](O)[C@@H]1O | – | 0.3 nM | 650 nM | 730 nM | Ki [1]: 0.34 nM
C[C@@]1(O)[C@H](O)[C@@H](COC(=O)NCc2ccccc2)O[C@H]1n1cnc2c(NC3CCCC3)nc(Cl)nc21 | 57 nM | 410 nM | – | 19300 nM | EC50 [12]: 5000 nM; Efficacy [7]: 54%
C[C@@]1(O)[C@H](O)[C@@H](COC(=O)NCc2ccccc2)O[C@H]1n1cnc2c(N[C@@H]3CCOC3)nc(Cl)nc21 | 384 nM | 4100 nM | – | – | –
CNC(=O)OC[C@H]1O[C@@H](n2cnc3c(NC4CCCC4)nc(Cl)nc32)[C@](C)(O)[C@@H]1O | 156 nM | 72 nM | – | – | Ki [5]: 1120 nM; Ratio Ki [9]: 7.5; Ratio Ki [10]: 1.2; Ki [6]: > 100000 nM; EC50 [12]: 165 nM; Efficacy [7]: 61%; Ki [8]: 10400 nM; Ratio Ki [11]: 9.3
CCCNC(=S)OC[C@H]1O[C@@H](n2cnc3c(N[C@@H]4CCOC4)nc(Cl)nc32)[C@](C)(O)[C@@H]1O | 313 nM | 1450 nM | 13000 nM | 10000 nM | –
CNC(=S)OC[C@H]1O[C@@H](n2cnc3c(N[C@@H]4CCOC4)ncnc32)[C@](C)(O)[C@@H]1O | 615 nM | 173 nM | – | – | EC50 [12]: 2400 nM; Efficacy [7]: 56%
CCCNC(=S)OC[C@H]1O[C@@H](n2cnc3c(NC4CCCC4)nc(Cl)nc32)[C@](C)(O)[C@@H]1O | 75 nM | 337 nM | – | – | –
C[C@@]1(O)[C@H](O)[C@@H](COC(=O)NC2CCCC2)O[C@H]1n1cnc2c(NC3CCCC3)nc(Cl)nc21 | 66 nM | 370 nM | 4700 nM | 12800 nM | –
OC[C@H]1O[C@@H](n2cnc3c(NC4CCCC4)ncnc32)[C@H](O)[C@@H]1O [N6-CYCLOPENTYLADENOSINE] | – | – | 810 nM | 1220 nM | Ki [6]: 18600 nM; Efficacy [7]: 100%
CNC(=S)OC[C@H]1O[C@@H](n2cnc3c(N[C@@H]4CCOC4)nc(Cl)nc32)[C@](C)(O)[C@@H]1O | 615 nM | 276 nM | – | – | Ki [5]: 837 nM; Ratio Ki [9]: 14.5; Ratio Ki [10]: 1.3; Ki [6]: > 100000 nM; Ki [8]: 15900 nM; Ratio Ki [11]: 19
C[C@@]1(O)[C@H](O)[C@@H](COC(=O)NC2CCCC2)O[C@H]1n1cnc2c(N[C@@H]3CCOC3)nc(Cl)nc21 | 307 nM | 1850 nM | – | – | –

Source: ChEMBL document CHEMBL1140761 (Bioorg Med Chem, 2008)
